The text below walks through data of paper PMC11329504, “Identification of novel small molecule-based strategies of COL7A1 upregulation and readthrough activity for the treatment of recessive dystrophic epidermolysis bullosa” (Scientific Reports, 2024).

Molecules are shown by their SMILES. Read-outs that look alike come from different tables or passages of the source.

The test system of data set [1] is truncated and full-length C7 in RDEB_L1, RDEB_L5 and HEK293^R578X cells. As to the kind of experiment: Western blot detection of truncated and full-length C7. Type of data set: cell-based, human. As to conditions: RDEB_L1, RDEB_L5 and HEK293^R578X cells. The protocol: For western blot, RDEB or normal human keratinocytes were lysed in protein extraction buffer (50 mM Tris–HCl [pH 7.5], 100 mM NaCl, 1% Nonidet P-40, and 4 mM EDTA) containing proteinase inhibitors cocktail (Complete Mini, EDTA free; Roche Diagnostics, Mannheim, Germany). Lysates were incubated for 30 min on ice and centrifuged at 15,000 g for 30 min at 4 °C. Supernatants were then collected and concentrated by ultrafiltration using Amicon Ultra columns (10 kDa; Millipore, Ireland). Protein concentrations were measured using the Bradford assay (Bio-Rad, Hercules, CA). For each sample, […] total protein was resolved on NuPAGE Novex 3%–8% Tris–Acetate gel electrophoresis (Invitrogen, Carlsbad, CA) and electrotransferred to nitrocellulose membranes (Invitrogen, Carlsbad, CA). For type VII collagen analysis, blots were probed with a monospecific polyclonal anti-C7 antibody (a generous gift from Dr. A. Nystrom, University of Freiburg). Invitrogen anti-MDH1 polyclonal antibody (PA550446, 1:1000) was used to detect MDH1. Standard antibodies against a reference protein were used as a loading control, as indicated. Visualization of the resulting signal was performed by incubating with horseradish peroxidase (HRP)- conjugated anti-rabbit antibody (Amersham, Burlington, MA) and West Pico Chemiluminescent Substrate (Pierce, Rockford, IL).
A general note: A western blot detects proteins with antibodies after separation by electrophoresis.

Data set [2] relates to total C7 in HEK293^R578X cells. Briefly: AlphaLISA quantification of total C7 in recombinant HEK293^R578X cells. Type of data set: cell-based, human. The protocol: (§1) The AlphaLISA assay was developed in-house by using the biotin-conjugated rabbit polyclonal antibody anti-C7 (LSBio LS-298147) and conjugating the acceptor beads (PerkinElmer 6772001) to a monoclonal anti-Collagen type VII antibody produced in mouse, clone LH7.2 (Thermo MA5-13,432). Formulation of the mAb clone LH7.2 was exchanged to PBS and concentrated 5 × by using Amicon® Ultra-0.5 centrifugal filters up to 1 mg/ml. The conjugation procedure was carried out according to the protocol provided by PerkinElmer.
(§2) For compound treatment in RDEB patient-derived transformed keratinocytes, 5,000 cells were plated in 20 µL of supplemented KGM media containing 20 ng/mL TGFβ2 (SIGMA GF113) without GA-1000 in 384-well cell culture plates (Greiner 781098). The day after, 5 µL of test compounds prepared 5 × in supplemented KGM without GA-1000 were added over cells and incubated for 48 h at 37 °C and 5% CO2. For compound treatment in HEK293^R578X, 10,000 cells were plated in 20 μL of DMEM (High Glucose, 2 mM L-Glutamine, sodium pyruvate, and FBS 10%) in 384-well cell culture plates (Greiner 781,098,). The day after, 5 μL of test compounds prepared 5 × in DMEM complete medium were added over cells and incubated for 48 h at 37 °C and 5% CO2.
(§3) After the treatment process, 2.5 µL of RIPA buffer 10 x (Abcam ab156034) were added over the […] of cells for 20 min at room temperature to obtain a complete cell lysis. Then, 2 μL of sample (i.e., cell lysate with supernatant) were transferred to the AlphaLISA plate (PerkinElmer 6,059,340) containing […] of antibodies mixture ([…] of acceptor Beads-Ab and […] of biotin-rAb) prepared in AlphaLISA buffer 1 x (PerkinElmer AL00F). The reaction was incubated for 90 min at room temperature. Finally, 10 μL of […] of donor beads (PerkinElmer 6760002,) were added to the reaction under subdued light, mixed gently, and incubated for 3 h at room temperature. AlphaLISA signal was detected with an Envision microplate reader (Perkin Elmer) using the following setting: Filter: AlphaScreen, Excitation time: 180 ms, Integration time: 300 ms.
(§4) Statistical analyses were performed using GraphPad Prism v. 7.04 (La Jolla, California). Results are shown as mean ± SD of experimental replicates. Dose–response curves to assess compound treatment effect were plotted in a four-parameter logistic model. Relative EC50, representing the total drug concentration producing a 50% effect, was calculated in the four-parameter logistic equation. Comparisons of collagen protein and mRNA expression in different experimental conditions were made using ANOVA, followed by a post hoc test. statistical significance was considered with p values < 0.05.

Data set [3] relates to total (truncated + full length) C7 in RDEB_L5 cells. Briefly: AlphaLISA quantification of total C7 in RDEB_L5 cells. Format: cell-based, human. The procedure:
as §1, §2, §3, §4
On the technique in general: Bead proximity is the source of the signal in Alpha formats.

The test system of the next data set is NHK cells. As to the kind of experiment: Cytotoxicity, ATP levels, normal human keratinocytes (NHK). Type of data set: cell-based. The conditions noted are these: NHK cells, ATP levels, at 40 µM. The procedure:
The viability of RDEB patient-derived cell lines or NHK was evaluated by measuring the ATP levels as an indirect readout of the potential cytotoxicity effect of compounds. Cells were plated and treated exactly with the same conditions as those followed in the AlphaLISA assay, described above. To measure ATP levels, cells were processed using the ATPlite™ 1step luminescence-based assay (PerkinElmer 6,016,731), following the manufacturer’s protocol. 25 μL of ATPlite™ reagent was added directly over cells and plates were covered with a sealing film and shaken for 25 min using a microtiter plate shaker. Luminescence was measured in a Luminoskan Ascent luminometer (Thermo Fisher Scientific). 10 μM of Staurosporine was used as a reference compound and control for the total cytotoxicity.

Data set [4] deals with total (truncated + full length) C7 in RDEB_L1 cells. As to the kind of experiment: AlphaLISA quantification of total C7 in RDEB_L1 cells. Type of data set: cell-based, human. The procedure:
as §1, §2, §3, §4

As usually defined, the EC50 is the concentration needed to bring the measured effect to its halfway point. As for `CN[C@@H]1[C@@H](O)[C@@H](O[C@@H]2[C@@H](O)[C@H](O[C@H]3O[C@H]([C@@H](C)O)[C@@H](O)[C@H](O)[C@H]3N)[C@@H](N)C[C@H]2N)OC[C@]1(C)O` [Compound G418, G418, reference compound], the “C7 products induced, western blot” value in data set [1] was “detectable upregulation of full length and truncated C7”. Besides, the “Increase in C7 levels Emax, % vs baseline” value came out at 71 ± 6 at 40 % vs baseline in data set [2] (at 40 µM); 35.5 at 25 % vs baseline in data set [3] (at 25 µM, 20 ng/mL TGFß2); 124 ± 76 at 20 % vs baseline in data set [4] (RDEB_L1 cells, at 20 µM, 20 ng/mL TGFß2). Moreover, the EC50 in data set [2] (total C7 AlphaLISA, 48 h, relative EC50, mean ± SD, read-out: Increase in C7 levels EC50) is 16 ± 0.09 µM; in data set [3] (total C7 AlphaLISA, 48 h, 20 ng/mL TGFß2, relative EC50, mean ± SD, read-out: Increase in C7 levels EC50) it was 12 µM; in data set [4] (RDEB_L1 cells, read-out: EC50 in the AlphaLISA assay), 4.9 µM; in data set [4] (in RDEB_L1 and RDEB_L5 cells, read-out: EC50 (range over two cell lines)), 4.9 to 12 µM. In the data set on NHK cells, the “Cytotox. % inhibition of viability” value is given as 30.8% ± 3.4 at 40 (n=4).
